Experimental findings from ChEMBL document CHEMBL1124105, “Analogues of gamma-hydroxybutyric acid. Synthesis and binding studies” (J Med Chem, 1988) are described below.

For assay [1], the target named is T1, Gamma-hydroxybutyrate receptor (Rattus norvegicus) (UniProt Q6RY99).
T1 sequence (whole entry): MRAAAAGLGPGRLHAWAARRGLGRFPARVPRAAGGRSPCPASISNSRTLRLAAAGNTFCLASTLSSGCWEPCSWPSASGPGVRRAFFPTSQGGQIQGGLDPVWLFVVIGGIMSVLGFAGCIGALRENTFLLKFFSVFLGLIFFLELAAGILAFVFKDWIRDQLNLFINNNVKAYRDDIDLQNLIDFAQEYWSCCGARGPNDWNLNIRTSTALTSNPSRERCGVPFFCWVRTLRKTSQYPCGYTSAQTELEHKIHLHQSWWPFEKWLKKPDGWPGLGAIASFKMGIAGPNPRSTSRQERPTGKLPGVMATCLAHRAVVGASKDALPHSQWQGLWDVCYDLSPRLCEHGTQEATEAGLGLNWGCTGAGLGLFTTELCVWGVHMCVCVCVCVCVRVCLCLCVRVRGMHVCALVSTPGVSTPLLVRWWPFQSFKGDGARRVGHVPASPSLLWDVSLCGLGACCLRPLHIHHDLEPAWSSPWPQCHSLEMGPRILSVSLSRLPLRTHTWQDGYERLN
The conditions noted are these: at 10 µM.

Assay [2] addresses T1, Gamma-hydroxybutyrate receptor (Rattus norvegicus). The conditions noted are these: at 10 µM. This is another data set of the same source.
The target is the same in assay [3]. The settings on record: at 1 µM.

Active and inactive are the calls of the source. The rule behind the calls is not given here.

For the molecule `O=C(O)CCO`, in assay [1], the inhibition result was “inactive”. For `O=S(=O)([O-])CCO.[Na+]`, in assay [1], the inhibition result is “inactive”. In the case of `O=C(O)CCC(O)c1ccccc1` (configuration not stated), the inhibition in assay [2] is 56%; in assay [3] it was 13%. `O=C(O)CC(CO)Cc1ccccc1` (configuration not stated): the inhibition entry in assay [1] is “inactive”. Still for that read-out and setting: as for `O=S(=O)(O)CCCCO`, the entry is “inactive”. In assay [2], `CC(CO)CC(=O)O` (configuration not stated) gave an inhibition of 59%. As to `O=C1CCCO1`, the inhibition entry in assay [1] is “inactive”. On the same count and under the same terms, as for `O=C(O)C(CCO)c1ccccc1` (configuration not stated), the entry is “inactive”. On to `O=C(O)/C=C(/CO)c1ccccc1`, for which the inhibition in assay [2] came out at 34%; in assay [3] it was 21%. As for `O=S(=O)(O)CCCO`, the inhibition result in assay [1] was “inactive”.

With `O=C(O)CCCCO`, the inhibition was 53% in assay [2] and 22% in assay [3]. As for `CC(O)CCC(=O)O` (configuration not stated), the values for the inhibition in assay [2] and in assay [3] were 63% and 12%, respectively. In the case of `OCCCCO`, the inhibition entry in assay [1] is “inactive”. Regarding `CCC(CO)CC(=O)O` (configuration not stated), the inhibition in assay [2] was determined as 43%. With `O=C(O)/C=C/C(O)c1ccccc1` (configuration not stated), the inhibition in assay [2] is 70%; in assay [3], 39%. As to `CC(CCO)C(=O)O` (configuration not stated), in assay [2], the inhibition was determined as 24%. Consider `O=C(O)/C=C/CO`, for which the figures for the inhibition in assay [2] and in assay [3] were 64% and 44%, respectively. As to `C=C(C)[C@@H]1[C@H]2OC(=O)[C@@H]1[C@]1(O)C[C@H]3OC34C(=O)O[C@H]2[C@@]41C.CC(C)(O)[C@@H]1[C@H]2OC(=O)[C@@H]1[C@]1(O)C[C@H]3OC34C(=O)O[C@H]2[C@@]41C` (some centres not stated), in assay [1], the inhibition entry is “inactive”. On to `O=C(O)/C=C/C(O)C1CCCCC1` (configuration not stated), for which the results for the inhibition in assay [2] and in assay [3] were 46% and 13%, respectively. `O=C(O)CCCO`: the inhibition in assay [2] worked out at 55%; in assay [3], 35%. With `CC(C)C(CO)CC(=O)O` (configuration not stated), the inhibition result in assay [1] was “inactive”. Turning to `CC(CO)C(C)C(=O)O` (configuration not stated), in assay [1], the inhibition result is “inactive”.

For `C/C(=C\C(=O)O)CO`, the inhibition in assay [2] was 55%; in assay [3], 11%. In addition, in assay [1], the inhibition entry is “inactive”. For `O=C(O)CC(CO)c1ccccc1` (configuration not stated), the inhibition result in assay [1] is “inactive”. On the same count and under the same terms, as for `NCCCC(=O)O`, the entry is “inactive”. In assay [2], `CCCC(CO)CC(=O)O` (configuration not stated) returned an inhibition of 5%. On to `O=C1C=CCO1`, for which the inhibition result in assay [1] is “inactive”.

The term inhibition denotes the change of the read-out against control, counted positive when it falls.
